# PubChem BioAssay (NCI)
#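 Exposure lasted 48 hours, with cells grown in 96-well plates and compounds tested at five concentrations. TGI: total growth inhibition.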
# Columns and labels:
# Experiment in all cases: NCI tumour cell line growth inhibition, 48 h
# [1] = test system: 786-0 renal
# [2] = test system: A498 renal
# [3] = test system: A549 NSCLC
# [4] = test system: ACHN renal
# [5] = test system: BT-549 breast
# [6] = test system: CAKI-1 renal
# [7] = test system: CCRF-CEM leukemia
# [8] = test system: COLO 205 colon
# [9] = test system: DU-145 prostate
# [10] = test system: EKVX NSCLC
# [11] = test system: HCC-2998 colon
# [12] = test system: HCT-116 colon
# [13] = test system: HCT-15 colon
# [14] = test system: HL-60(TB) leukemia
# [15] = test system: HOP-62 NSCLC
# [16] = test system: HOP-92 NSCLC
# [17] = test system: HS 578T breast
# [18] = test system: HT29 colon
# [19] = test system: IGROV1 ovarian
# [20] = test system: K-562 leukemia
# [21] = test system: KM12 colon
# [22] = test system: LOX IMVI melanoma
# [23] = test system: M14 melanoma
# [24] = test system: MALME-3M melanoma
# [25] = test system: MCF7 breast
# [26] = test system: MDA-MB-231 breast
# [27] = test system: MDA-MB-435
# [28] = test system: MDA-N
# [29] = test system: MOLT-4 leukemia
# [30] = test system: NCI-H226 lung
# [31] = test system: NCI-H23 lung
# [32] = test system: NCI-H460 lung
# [33] = test system: NCI-H522 lung
# [34] = test system: NCI/ADR-RES ovarian
# [35] = test system: OVCAR-3 ovarian
# [36] = test system: OVCAR-4 ovarian
# [37] = test system: OVCAR-5 ovarian
# [38] = test system: OVCAR-8 ovarian
# [39] = test system: PC-3 prostate
# [40] = test system: RPMI-8226 leukemia
# [41] = test system: RXF 393 renal
# [42] = test system: SF-268 CNS
# [43] = test system: SF-295 CNS
# [44] = test system: SK-MEL-2 melanoma
# [45] = test system: SK-MEL-28 melanoma
# [46] = test system: SK-MEL-5 melanoma
# [47] = test system: SK-OV-3 ovarian
# [48] = test system: SN12C renal
# [49] = test system: SNB-19 CNS
# [50] = test system: SNB-75 CNS
# [51] = test system: SR leukemia
# [52] = test system: SW-620 colon
# [53] = test system: T-47D breast
# [54] = test system: U251 CNS
# [55] = test system: UACC-257 melanoma
# [56] = test system: UACC-62 melanoma
# [57] = test system: UO-31 renal
# [58] = test system: SF-539 CNS
# [59] = test system: TK-10 renal
smiles,measurement,setting,value
CCCCc1ccc(Nc2nc3c(ncn3C3CC(O)C(CN=[N+]=[N-])O3)c(=O)[nH]2)cc1 (centres undefined),TGI,[1],> 100 µM
same,TGI,[2],> 100 µM
same,TGI,[3],> 100 µM
same,TGI,[4],> 100 µM
same,TGI,[5],> 100 µM
same,TGI,[6],> 100 µM
same,TGI,[7],> 100 µM
same,TGI,[8],> 100 µM
same,TGI,[9],> 100 µM
same,TGI,[10],> 100 µM
same,TGI,[11],> 100 µM
same,TGI,[12],> 100 µM
same,TGI,[13],> 100 µM
same,TGI,[14],> 100 µM
same,TGI,[15],> 100 µM
same,TGI,[16],> 100 µM
same,TGI,[17],> 100 µM
same,TGI,[18],> 100 µM
same,TGI,[19],> 100 µM
same,TGI,[20],> 100 µM
same,TGI,[21],> 100 µM
same,TGI,[22],> 100 µM
same,TGI,[23],> 100 µM
same,TGI,[24],> 100 µM
same,TGI,[25],> 100 µM
same,TGI,[26],> 100 µM
same,TGI,[27],> 100 µM
same,TGI,[28],> 100 µM
same,TGI,[29],> 100 µM
same,TGI,[30],> 100 µM
same,TGI,[31],> 100 µM
same,TGI,[32],> 100 µM
same,TGI,[33],> 100 µM
same,TGI,[34],> 100 µM
same,TGI,[35],> 100 µM
same,TGI,[36],> 100 µM
same,TGI,[37],> 100 µM
same,TGI,[38],> 100 µM
same,TGI,[39],> 100 µM
same,TGI,[40],> 100 µM
same,TGI,[41],> 100 µM
same,TGI,[42],> 100 µM
same,TGI,[43],> 100 µM
same,TGI,[44],> 100 µM
same,TGI,[45],> 100 µM
same,TGI,[46],> 100 µM
same,TGI,[47],> 100 µM
same,TGI,[48],> 100 µM
same,TGI,[49],> 100 µM
same,TGI,[50],> 100 µM
same,TGI,[51],> 100 µM
same,TGI,[52],> 100 µM
same,TGI,[53],> 100 µM
same,TGI,[54],> 100 µM
same,TGI,[55],> 100 µM
same,TGI,[56],> 100 µM
same,TGI,[57],> 100 µM
CCCCCCCCOC1C(O)C(O)C(O)C(O)C12CO2 (centres undefined),TGI,[1],> 100 µM
same,TGI,[2],> 100 µM
same,TGI,[3],> 100 µM
same,TGI,[4],> 100 µM
same,TGI,[5],> 100 µM
same,TGI,[6],> 100 µM
same,TGI,[7],> 100 µM
same,TGI,[8],> 100 µM
same,TGI,[9],> 100 µM
same,TGI,[11],> 100 µM
same,TGI,[12],> 100 µM
same,TGI,[13],> 100 µM
same,TGI,[14],> 100 µM
same,TGI,[15],> 100 µM
same,TGI,[17],> 100 µM
same,TGI,[18],> 100 µM
same,TGI,[19],> 100 µM
same,TGI,[20],> 100 µM
same,TGI,[21],> 100 µM
same,TGI,[22],> 100 µM
same,TGI,[24],> 100 µM
same,TGI,[25],> 100 µM
same,TGI,[26],> 100 µM
same,TGI,[27],> 100 µM
same,TGI,[28],> 100 µM
same,TGI,[29],> 100 µM
same,TGI,[30],> 100 µM
same,TGI,[31],31.3 µM
same,TGI,[32],> 100 µM
same,TGI,[33],> 100 µM
same,TGI,[34],> 100 µM
same,TGI,[35],> 100 µM
same,TGI,[38],> 100 µM
same,TGI,[39],> 100 µM
same,TGI,[40],> 100 µM
same,TGI,[41],> 100 µM
same,TGI,[42],> 100 µM
same,TGI,[43],> 100 µM
same,TGI,[58],> 100 µM
same,TGI,[44],> 100 µM
same,TGI,[45],> 100 µM
same,TGI,[47],> 100 µM
same,TGI,[48],> 100 µM
same,TGI,[49],> 100 µM
same,TGI,[50],> 100 µM
same,TGI,[51],> 100 µM
same,TGI,[52],> 100 µM
same,TGI,[53],> 100 µM
same,TGI,[59],> 100 µM
same,TGI,[54],> 100 µM
same,TGI,[55],> 100 µM
same,TGI,[56],> 100 µM
same,TGI,[57],> 100 µM
FC(F)(F)c1nc2nc(Cl)c(Cl)nc2n1CCCN1CCOCC1,TGI,[1],> 100 µM
same,TGI,[2],> 100 µM
same,TGI,[3],> 100 µM
same,TGI,[4],> 100 µM
same,TGI,[5],> 100 µM
same,TGI,[6],14.7 µM
same,TGI,[7],> 100 µM
same,TGI,[8],> 100 µM
same,TGI,[9],63.2 µM
same,TGI,[10],50.5 µM
same,TGI,[12],> 100 µM
same,TGI,[13],> 100 µM
same,TGI,[14],40.3 µM
same,TGI,[15],> 100 µM
same,TGI,[16],> 100 µM
same,TGI,[17],> 100 µM
same,TGI,[18],> 100 µM
same,TGI,[19],> 100 µM
same,TGI,[20],39.6 µM
same,TGI,[21],> 100 µM
same,TGI,[22],> 100 µM
same,TGI,[23],> 100 µM
same,TGI,[24],> 100 µM
same,TGI,[25],> 100 µM
same,TGI,[26],> 100 µM
same,TGI,[27],> 100 µM
same,TGI,[28],> 100 µM
same,TGI,[29],48.6 µM
same,TGI,[30],> 100 µM
same,TGI,[31],> 100 µM
same,TGI,[32],> 100 µM
same,TGI,[33],> 100 µM
same,TGI,[34],> 100 µM
same,TGI,[35],> 100 µM
same,TGI,[36],> 100 µM
same,TGI,[37],> 100 µM
same,TGI,[38],> 100 µM
same,TGI,[39],> 100 µM
same,TGI,[40],> 100 µM
same,TGI,[41],68.1 µM
same,TGI,[42],> 100 µM
same,TGI,[43],> 100 µM
same,TGI,[58],> 100 µM
same,TGI,[44],> 100 µM
same,TGI,[45],> 100 µM
same,TGI,[46],> 100 µM
same,TGI,[47],> 100 µM
same,TGI,[48],> 100 µM
same,TGI,[49],> 100 µM
same,TGI,[50],> 100 µM
same,TGI,[51],33.9 µM
same,TGI,[52],> 100 µM
same,TGI,[53],> 100 µM
same,TGI,[59],> 100 µM
same,TGI,[54],> 100 µM
same,TGI,[55],64 µM
same,TGI,[56],> 100 µM
Nc1ccccc1C(=O)CC1OC(=O)c2ccccc21 (centres undefined),TGI,[1],> 100 µM
same,TGI,[2],> 100 µM
same,TGI,[3],> 100 µM
same,TGI,[4],> 100 µM
same,TGI,[5],90.5 µM
same,TGI,[9],> 100 µM
same,TGI,[10],> 100 µM
same,TGI,[12],> 100 µM
same,TGI,[13],> 100 µM
same,TGI,[14],> 100 µM
same,TGI,[15],> 100 µM
same,TGI,[16],> 100 µM
same,TGI,[17],> 100 µM
same,TGI,[18],> 100 µM
same,TGI,[19],> 100 µM
same,TGI,[20],> 100 µM
same,TGI,[21],> 100 µM
same,TGI,[22],> 100 µM
same,TGI,[23],> 100 µM
same,TGI,[24],> 100 µM
same,TGI,[25],> 100 µM
same,TGI,[26],> 100 µM
same,TGI,[27],> 100 µM
same,TGI,[28],> 100 µM
same,TGI,[29],> 100 µM
same,TGI,[30],> 100 µM
same,TGI,[32],> 100 µM
same,TGI,[33],> 100 µM
same,TGI,[34],> 100 µM
same,TGI,[35],> 100 µM
same,TGI,[36],> 100 µM
same,TGI,[37],> 100 µM
same,TGI,[38],> 100 µM
same,TGI,[39],> 100 µM
same,TGI,[40],> 100 µM
same,TGI,[42],> 100 µM
same,TGI,[43],> 100 µM
same,TGI,[58],> 100 µM
same,TGI,[44],88 µM
same,TGI,[45],> 100 µM
same,TGI,[47],> 100 µM
same,TGI,[48],> 100 µM
same,TGI,[49],> 100 µM
same,TGI,[50],> 100 µM
same,TGI,[51],> 100 µM
same,TGI,[52],> 100 µM
same,TGI,[53],> 100 µM
same,TGI,[59],> 100 µM
same,TGI,[54],> 100 µM
same,TGI,[55],> 100 µM
same,TGI,[56],> 100 µM
same,TGI,[57],> 100 µM
